Consider 39 molecules from ChEMBL document CHEMBL1128038, “Acyl CoA:cholesterol acyltransferase (ACAT) inhibitors: ureas bearing heterocyclic groups bioisosteric for an imidazole” (Bioorg Med Chem Lett, 1995).

Molecules are shown by their SMILES.

Data set [1] deals with T1, Sterol O-acyltransferase 1 (Rattus norvegicus, UniProt O70536).
T1 sequence (O70536 whole entry): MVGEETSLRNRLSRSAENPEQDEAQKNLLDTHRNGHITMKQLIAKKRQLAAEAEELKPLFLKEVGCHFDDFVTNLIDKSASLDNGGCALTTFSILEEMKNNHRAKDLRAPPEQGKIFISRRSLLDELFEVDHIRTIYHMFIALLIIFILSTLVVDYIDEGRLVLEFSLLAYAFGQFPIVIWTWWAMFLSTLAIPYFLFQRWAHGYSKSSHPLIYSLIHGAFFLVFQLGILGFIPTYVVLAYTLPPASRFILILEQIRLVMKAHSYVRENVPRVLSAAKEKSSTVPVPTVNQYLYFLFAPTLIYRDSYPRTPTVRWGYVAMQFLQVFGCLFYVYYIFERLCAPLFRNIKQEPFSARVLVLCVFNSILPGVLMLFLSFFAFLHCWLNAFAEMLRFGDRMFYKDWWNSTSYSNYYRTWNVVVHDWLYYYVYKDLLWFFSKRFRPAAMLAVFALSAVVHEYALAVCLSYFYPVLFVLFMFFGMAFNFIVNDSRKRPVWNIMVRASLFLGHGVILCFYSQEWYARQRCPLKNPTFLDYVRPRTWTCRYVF
The data set can be described thus: In vitro inhibition of acyl coenzyme A:cholesterol acyltransferase (ACAT) in rat hepatic microsomes by using AIV assay. The arrangement: species or system Liver.

In data set [2] the target is T2, Sterol O-acyltransferase 1 (Mus musculus, UniProt Q61263).
T2 sequence (Q61263 whole entry): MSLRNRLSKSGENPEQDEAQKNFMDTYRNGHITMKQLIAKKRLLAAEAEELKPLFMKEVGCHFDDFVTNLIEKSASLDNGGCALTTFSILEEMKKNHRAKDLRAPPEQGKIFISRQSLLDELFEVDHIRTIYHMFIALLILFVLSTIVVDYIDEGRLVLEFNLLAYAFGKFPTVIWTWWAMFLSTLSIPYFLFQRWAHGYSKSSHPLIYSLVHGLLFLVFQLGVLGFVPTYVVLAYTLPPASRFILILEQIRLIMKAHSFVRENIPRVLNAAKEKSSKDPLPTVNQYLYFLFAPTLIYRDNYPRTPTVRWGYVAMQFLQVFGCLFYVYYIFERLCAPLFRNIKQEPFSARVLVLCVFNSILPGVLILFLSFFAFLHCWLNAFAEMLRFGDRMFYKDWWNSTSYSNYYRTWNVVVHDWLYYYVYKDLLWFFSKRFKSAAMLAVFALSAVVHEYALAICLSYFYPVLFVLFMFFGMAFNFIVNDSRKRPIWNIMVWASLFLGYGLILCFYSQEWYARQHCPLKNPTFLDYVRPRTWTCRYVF
The data set can be described thus: Inhibition of acyl coenzyme A:cholesterol acyltransferase (ACAT) in J774 Macrophage cell culture by using J774 assay. In kind it is cell-based.

Data set [3] in a line: Partition coefficient (logP). It counts as physicochemical. Conditions: octanol/water; call rule not given here.
The target in data set [4] is T2, Sterol O-acyltransferase 1. The data set can be described thus: Inhibition of Acyl coenzyme A:cholesterol acyltransferase (ACAT) in J774 Macrophage cell culture was measured by using J774 assay; IA means inactive. In kind it is cell-based.
Data set [5] deals with T2, Sterol O-acyltransferase 1. Kind of data set: Inhibition of Acyl coenzyme A:cholesterol acyltransferase (ACAT) in J774 Macrophage cell culture was measured by using J774 assay; IA means the compound was inactive. In kind it is cell-based.
Data set [6] has as its target T1, Sterol O-acyltransferase 1. The data set can be described thus: In vitro inhibition of ACYL CoA:Cholesterol Acyltransferase (ACAT) in rat hepatic microsomes was measured by using AIV assay. The arrangement: species or system Liver.
Data set [7] addresses T1, Sterol O-acyltransferase 1. Kind of data set: In vitro inhibition of Acyl coenzyme A:cholesterol acyltransferase (ACAT) in rat hepatic microsomes was measured by using AIV assay; IA means the compound was inactive. Also on record: species or system Liver.

By IC50 is commonly meant the point on the concentration scale where inhibition reaches its midpoint. One may read the logP as the decadic logarithm of the partition coefficient of the neutral form, usually between octanol and water. Higher therefore signals higher lipophilicity. Take `CCCCCCCN(CCCCCSc1nc(O)cc(Cc2ccccc2)n1)C(=O)NC(C)C`: the results for the IC50 in data set [1] (read-out: IC50) and in data set [2] were 9.2 µM and 25 µM, respectively. This molecule gave a logP in data set [3] of 7.4.
For `CCCCCCCN(CCCCCSc1[nH]cnc2ncnc1-2)C(=O)Nc1ccc(F)cc1F`, the results for the IC50 in data set [1] (read-out: IC50) and in data set [2] were 0.2 µM and 5.32 µM, respectively. Also, in data set [3], the logP turned out to be 5.32.
The like results for `CCCCCCN(CCCCCSc1nc2ccc[nH]c-2n1)C(=O)NC(C)C` were, in that order, 7.15 µM, 7.1 µM and 5.62.
For `CCCCCCCN(CCCCCSc1ncccn1)C(=O)Nc1ccc(F)cc1F` the same measures were 3.3 µM, 4.37 µM and 5.41.
Take `CCCCCCCN(CCCCCSc1nc(-c2ccccc2)cn1-c1ccccc1)C(=O)Nc1ccc(F)cc1F`: the IC50 amounted to 7.2 µM in data set [1] (read-out: IC50) and 6.02 µM in data set [2].
For `CCCCCCCN(CCCCCSc1nc(O)c2ccccc2n1)C(=O)Nc1ccc(F)cc1F`, the results for the 50% inhibitory concentration (IC50) in data set [1] (read-out: IC50) and in data set [2] were 4 µM and 11 µM, respectively. The same molecule had a logP in data set [3] of 6.17.
Consider `CCCCCCN(CCCCCSc1nc2ccccc2o1)C(=O)Nc1ccc(F)cc1F`, for which the IC50 amounted to 51 µM in data set [1] (read-out: IC50) and 3.5 µM in data set [2]. This molecule yielded a logP in data set [3] of 7.18.
The like results for `CCCCCCCN(CCCCCSc1nc(N)c2c[nH]nc2n1)C(=O)Nc1ccc(F)cc1F` were, in that order, 4.23 µM, 72.5 µM and 5.74.
The like results for `CCCCCCN(CCCCCSc1nc2c[nH]cnc-2n1)C(=O)NC(C)C` were, in that order, 23.7 µM, 19.1 µM and 4.66.
In turn, `CCCCCCCN(CCCCCSc1ncc[nH]1)C(=O)Nc1ccc(F)cc1F` yielded an IC50 in data set [2] of 5.5 µM.
Consider `CCCCCCCN(CCCCCSc1[nH]cnc2ncnc1-2)C(=O)NC(C)C`, for which the IC50 in data set [1] (read-out: IC50) came to 29.7 µM; in data set [2], 4.72 µM. In data set [3], the logP is 4.72.
With `CCCCCCN(CCCCCSc1nc2ccc[nH]c-2n1)C(=O)Nc1ccc(F)cc1F`, the IC50 in data set [1] (read-out: IC50) amounted to 3.6 µM; in data set [2] it was 5.47 µM. In data set [3], this molecule showed a logP of 6.22.
For `CCCCCCCN(CCCCCSc1n[nH]c(-c2ccccc2)n1)C(=O)Nc1ccc(F)cc1F` the same measures were 4 µM, 4.18 µM and 6.78.
As for `CCCCCCN(CCCCCSc1nc2c[nH]cnc-2n1)C(=O)Nc1ccc(F)cc1F`, the half-inhibitory concentration (IC50) was 0.86 µM in data set [1] (read-out: IC50) and “Not Active” in data set [4]. In data set [3], this molecule yielded a log partition coefficient (logP) of 5.26.
With `CCCCCCCN(CCCCCSc1nnc(-c2ccccc2)n1-c1ccccc1)C(=O)Nc1ccc(F)cc1F`, the results for the half-maximal inhibitory concentration (IC50) in data set [1] (read-out: IC50) and in data set [2] were 19 µM and 4.8 µM, respectively. Moreover, in data set [3], the logP was 8.64.
The like results for `CCCCCCN(CCOCCSc1nc2c[nH]cnc-2n1)C(=O)NC(C)C` were, in that order, 2 µM, 60 µM and 3.72.
For `CCCCCCN(CCCCCSc1nc2ccccc2n1C)C(=O)Nc1ccc(F)cc1F` the same measures were 2.49 µM, 3.02 µM and 7.47.
With `CCCCCCCN(CCCCCSc1nc(N)cc(O)n1)C(=O)NC(C)C`, the IC50 in data set [1] (read-out: IC50) was 74 µM; in data set [2], 9.3 µM. In addition, in data set [3], the logP is 5.61.
The like results for `CCCCCCCN(CCCCCSc1[nH]cnc2nncc1-2)C(=O)NC(C)C` were, in that order, 7.13 µM, 4.35 µM and 5.
The like results for `CCCCCCN(CCCCCSc1nc2cc([N+](=O)[O-])ccc2[nH]1)C(=O)Nc1ccc(F)cc1F` were, in that order, 2 µM, 8.33 µM and 7.19.
For `CCCCCCCN(CCCCCSc1nc(N)c2c[nH]nc2n1)C(=O)NC(C)C`, the IC50 result in data set [1] and in data set [5] was “Not Active” throughout. In data set [3], this molecule displayed a logP of 5.14.
Consider `CCCCCCCN(CCCCCSc1ccccn1)C(=O)Nc1ccc(F)cc1F`, for which the IC50 stood at 4 µM in data set [1] (read-out: IC50) and 4.51 µM in data set [2]. The same molecule displayed a logP in data set [3] of 6.41.
The like results for `CCCCCCN(CCCCCSc1nc2c(=O)n(C)c(=O)n(C)c2[nH]1)C(=O)NC(C)C` were, in that order, 3.6 µM, 1.53 µM and 5.1.
As for `CCCCCCCN(CCCCCSc1nc(-c2ccccc2)c(-c2ccccc2)n1-c1ccccc1)C(=O)Nc1ccc(F)cc1F`, the figures for the IC50 entry in data set [1] and in data set [2] were “Not Active” and 54.5 µM, respectively.
Regarding `CCCCCCCN(CCCCCSc1nc(-c2ccccc2)c[nH]1)C(=O)Nc1ccc(F)cc1F`, the IC50 in data set [2] was 1.6 µM.
Molecule `CCCCCCCN(CCCCCSC1N=C(c2ccccc2)c2ccccc2NC1=O)C(=O)Nc1ccc(F)cc1F` (stereo not drawn) returned a concentration for half-maximal inhibition (IC50) in data set [2] of 6.96 µM. This molecule returned a logP in data set [3] of 7.59.
With `CCCCCCCN(CCCCCSc1[nH]cnc2nncc1-2)C(=O)Nc1ccc(F)cc1F`, the half-maximal inhibitory concentration (IC50) was 0.71 µM in data set [1] (read-out: IC50) and 3.31 µM in data set [2]. This molecule also showed a logP in data set [3] of 5.6.
For `CCCCCCCN(CCCCCOC1=NC(S)=NC1(c1ccccc1)c1ccccc1)C(=O)NC(C)C`, the IC50 in data set [6] came to 0.09 µM; in data set [2], 2.79 µM.
Consider `CCCCCCN(CCCCCSc1nc2c([nH]1)CCCC2)C(=O)Nc1ccc(F)cc1F`, for which the IC50 was found to be 0.81 µM in data set [1] (read-out: IC50) and 2.58 µM in data set [2]. The same molecule yielded a logP in data set [3] of 6.81.
For `CCCCCCN(CCCCCSc1nc2ccccc2s1)C(=O)Nc1ccc(F)cc1F` the same measures were 4 µM, 2.73 µM and 7.78.
In the case of `CCCCCCN(CCOCCSc1nc2c[nH]cnc-2n1)C(=O)Nc1ccc(F)cc1F`, in data set [1], the IC50 result is reported as “Not Active”. In data set [3], this molecule registered a logP of 4.32.
For `CCCCCCN(CCCCCSc1nc2cc(OCC)ccc2s1)C(=O)Nc1ccc(F)cc1F`, the values for the IC50 in data set [2] and in data set [7] were 4.54 µM and “Not Active”, respectively. In data set [3], this molecule registered a log partition coefficient (logP) of 8.46.
Take `CCCCCCCN(CCCCCSC1=NC(=O)C(c2ccccc2)(c2ccccc2)N1)C(=O)NC(C)C`: the IC50 turned out to be 2.79 µM in data set [1] (read-out: IC50) and 2.14 µM in data set [2].
Take `CCCCCCN(CCCCCSc1nc2ccccc2[nH]1)C(=O)Nc1ccc(F)cc1F`: the IC50 in data set [1] (read-out: IC50) is 0.5 µM; in data set [2], 3.1 µM. The logP in data set [3] came out at 7.29.
As to `CCCCCCCN(CCCCCSc1nc[nH]n1)C(=O)Nc1ccc(F)cc1F`, the half-maximal inhibitory concentration (IC50) in data set [1] (read-out: IC50) worked out at 5 µM; in data set [2], 27.3 µM.
For the molecule `CCCCCCCN(CCCCCSc1nc(-c2ccccc2)c(-c2ccccc2)n1C)C(=O)Nc1ccc(F)cc1F`, inhibition in data set [2] was half-maximal at 3.8 µM (IC50).
Turning to `CCCCCCN(CCCCCSc1nc2cc(C)ccc2[nH]1)C(=O)Nc1ccc(F)cc1F`, the IC50 worked out at 1 µM in data set [1] (read-out: IC50) and 2.06 µM in data set [2]. In data set [3], this molecule came in with a logP of 7.79.
The like results for `CCCCCCCN(CCCCCSc1nnc(-c2ccccc2)c(-c2ccccc2)n1)C(=O)Nc1ccc(F)cc1F` were, in that order, 0.44 µM, 10.6 µM and 8.72.
As for `CCCCCCCN(CCCCCSC1N=C(c2ccccc2)c2ccccc2NC1=O)C(=O)NC(C)C` (stereo not drawn), the IC50 in data set [2] was determined as 6.53 µM. For the same molecule, the log partition coefficient (logP) in data set [3] stood at 6.99.
